Laboratory results from PMC3094505 (Structure (London, England : 1993), 2011).
Where two headings read alike, the source gives them in different places. Where no end group is shown, it is not given here.

Assays:
[1] = target: T1, CaM1-148 (full-length CaM) (Paramecium tetraurelia, UniProt P07463); test: Fluorescence anisotropy titration of Fl-Nav1.2IQp with CaM1-148; type: binding
[2] = target: T2, CaM76-148 (C-domain of CaM) (Paramecium tetraurelia, UniProt P07463); settings: read-out: Kd, Ca^2+-saturated CaM76-148 binding, stoichiometric binding, only an upper limit for Kd, fluorescence anisotropy, pH 7.4, 22 °C
[3] = target: T2, CaM76-148 (C-domain of CaM); test: biochemical
[4] = target: CaM1-80 (N-domain of CaM) (Paramecium tetraurelia, UniProt P07463); test: Equilibrium Ca2+ titration of CaM1-80 with Nav1.2IQp; type: biochemical; settings: 6 μM CaM, 9 μM Nav1.2IQp, 22 °C; phenylalanine fluorescence
[5] = target: T1, CaM1-148 (full-length CaM); test: Equilibrium Ca2+ titration of CaM1-148 with Nav1.2IQp; type: biochemical
[6] = target: T1, CaM1-148 (full-length CaM); test: Ca2+ titration of apo CaM1-148:Nav1.2IQp complex monitored by 15N/1H-HSQC; type: biochemical; settings: 15N/1H-HSQC titration, pH 6.8
CaM [7] = settings: apo CaM compared with (Ca^2+)4-CaM
(Ca^2+)4-CaM (CaM1-148) = type: binding, Paramecium; settings: Nav1.2_1913-1938 in 6-fold excess, fluorescence anisotropy (Figure S6A)
CaM [8] = settings: ref Mori et al., 2000; cited from earlier work

## KRKQEEVSAIVIQRAYRRYLLKQKVKK [Fl-Nav1.2IQp]
[1]
  Kd: ≤ 10 nM
[2]
  Kd: ≤ 10 nM
[3]
  Kd: ≤ 10 nM

## KRKQEEVSAIVIQRAYRRYLLKQKVKK [Nav1.2IQp]
[4]
  effect on Ca^2+ binding to sites I and II of CaM1-80: little effect
[5]; 6 μM CaM, 9 μM Nav1.2IQp, 22 °C, phenylalanine fluorescence
  effect on Ca^2+ binding to sites I and II of CaM1-148: little effect
[5]; overall, CaM, with versus without Nav1.2IQp (Figure 2D)
  lowering of overall Ca^2+-binding affinity of CaM (free energy): 4.03 kcal/mol
[6]
  Ca^2+-binding affinity of sites I and II relative to sites III and IV of CaM1-148 bound to Nav1.2IQp: slightly more favorable
CaM [7]
  relative affinity for apo CaM versus (Ca^2+)4-CaM: higher affinity for apo CaM than (Ca^2+)4-CaM

## QRAYRRYLLKQKVKKVSSIYKKDKGK [Nav1.2BAA-1913-1938]
(Ca^2+)4-CaM (CaM1-148)
  simultaneous binding of Nav1.2IQp and Nav1.2_1913-1938 to (Ca^2+)4-CaM: no evidence for simultaneous binding
CaM [8]
  binding to (Ca^2+)4-CaM: binds to (Ca^2+)4-CaM
